Results: patent US7772241B2, “Variolin derivatives and their use as antitumor agents” (Pharma Mar S.A., priority 2001, dated 2010)
Like-named read-outs stand apart in the source and are kept apart here.

Tests used:
IGROV-1 = test: Inhibition of cells growth by colorimetric (SRB) assay, IGROV-1; conditions: SRB assay, 48 hours exposure; for GI50: read-out: GI50 IGROV; for CC50: read-out: LC50 IGROV
Outline: (§1)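 Read-out is sulforhodamine B protein stain (OD 490 nm) after cold TCA fixation, following 48 h continuous exposure to samples spanning 10 to 10^−8 μg/ml.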

A-549 = test: Inhibition of cells growth by colorimetric (SRB) assay, A-549; conditions: SRB assay, 48 hours exposure; for GI50: read-out: GI50 A-549; for CC50: read-out: LC50 A-549
Outline: as §1

DU-145 = test: Inhibition of cells growth by colorimetric (SRB) assay, DU-145; conditions: for GI50: read-out: GI50 DU-145
Outline: as §1

SK-BR-3 = test: Inhibition of cells growth by colorimetric (SRB) assay, SK-BR-3; conditions: SRB assay, 48 hours exposure; for GI50: read-out: GI50 SK-BR-3; for CC50: read-out: LC50 SK-BR-3
Source text: (§2) The finality of these assays is to interrupt the growth of a “in vitro” tumor cell culture by means a continued exhibition of the cells to the sample to be testing.
(§3) This form of the assay employs 96 well cell culture microplates of 9 mm diameter (Faircloth, 1988; Mosmann, 1983). Most of the cell lines are obtained from American Type Culture Collection (ATCC) derived from different human cancer types.
(§4) Cells are maintained in RPMI 1640 10% FBS, supplemented with 0.1 g/l penicillin and 0.1 g/l streptomycin sulphate and then incubated at 37° C., 5% CO2 and 98% humidity. For the experiments, cells were harvested from subconfluent cultures using trypsin and resuspended in fresh medium before plating.
(§5) Cells are seeded in 96 well microtiter plates, at 5×10^3 cells per well in aliquots of 195 μl medium, and they are allowed to attach to the plate surface by growing in drug free medium for 18 hours. Afterward, samples are added in aliquots of 5 μl in a ranging from 10 to 10^−8 μg/ml, dissolved in DMSO/EtOH/PBS (0.5:0.5:99). After 48 hours exposure, the antitumor effect are measured by the SRB methodology: cells are fixed by adding 50 μl of cold 50% (wt/vol) trichloroacetic acid (TCA) and incubating for 60 minutes at 4° C. Plates are washed with deionized water and dried. One hundred μl of SRB solution (0.4% wt/vol in 1% acetic acid) is added to each microtiter well and incubated for 10 minutes at room temperature. Unbound SRB is removed by washing with 1% acetic acid. Plates are air dried and bound stain is solubilized with Tris buffer. Optical densities are read on a automated spectrophotometric plate reader at a single wavelength of 490 nm.
(§6) The values for mean +/−SD of data from triplicate wells are calculated. Some parameters for cellular responses can be calculated: GI=growth inhibition, TGI=total growth inhibition (cytostatic effect) and LC=cell killing (cytotoxic effect).

PANC-1 = test: Inhibition of cells growth by colorimetric (SRB) assay, PANC-1; conditions: SRB assay, 48 hours exposure; for GI50: read-out: GI50 PANC-1; for CC50: read-out: LC50 PANC-1
Outline: as §1

HMEC1 = test: Inhibition of cells growth by colorimetric (SRB) assay, HMEC1; conditions: SRB assay, 48 hours exposure; for TGI H-MEC-1: in M (unit assumed); for GI50: read-out: GI50 H-MEC-1; for CC50: read-out: LC50 H-MEC-1
Source text: as §2, §3, §4, §5, §6

LoVo = test: Inhibition of cells growth by colorimetric (SRB) assay, LoVo; conditions: SRB assay, 48 hours exposure; for GI50: read-out: GI50 LOVO; for CC50: read-out: LC50 LOVO
Outline: as §1

K-562 = test: Inhibition of cells growth by colorimetric (SRB) assay, K-562; conditions: SRB assay, 48 hours exposure; for GI50: read-out: GI50 K-562; for CC50: read-out: LC50 K-562
Outline: as §1

LNCaP = test: Inhibition of cells growth by colorimetric (SRB) assay, LNCaP
Outline: as §1

HT-29 = test: Inhibition of cells growth by colorimetric (SRB) assay, HT-29; conditions: SRB assay, 48 hours exposure; for GI50: read-out: GI50 HT-29; for CC50: read-out: LC50 HT-29
Outline: as §1

SK-MEL-28 = test: Inhibition of cells growth by colorimetric (SRB) assay, SK-MEL-28; conditions: SRB assay, 48 hours exposure; for GI50: read-out: GI50 MEL-28; for CC50: read-out: LC50 MEL-28
Outline: as §1

LoVo-Dox = test: Inhibition of cells growth by colorimetric (SRB) assay, LoVo-Dox; conditions: SRB assay, 48 hours exposure; for GI50: read-out: GI50 LOVO-DOX; for CC50: read-out: LC50 LOVO-DOX
Outline: as §1

IGROV-ET = test: Inhibition of cells growth by colorimetric (SRB) assay, IGROV-ET; conditions: SRB assay, 48 hours exposure; for GI50: read-out: GI50 IGROV-ET; for CC50: read-out: LC50 IGROV-ET
Outline: as §1

SK-OV-3 = test: Inhibition of cells growth by colorimetric (SRB) assay, SK-OV-3; conditions: for CC50: read-out: LC50 SKOV-3
Outline: as §1

In the case of `CCOc1nccc(-c2c3cccnc3n3c(N)nccc23)n1` [Compound 77], the “TGI IGROV” value (IGROV-1) is reported as 2.74E−06, the GI50 (IGROV-1) is reported as 1.3 µM and the CC50 (IGROV-1) is reported as ≥ 32.6 µM. The “TGI A-549” value (A-549) was 3.26E−05, the GI50 (A-549) was ≥ 32.6 µM and the CC50 (A-549) was > 32.6 µM. For the same compound, the “TGI DU-145” value (DU-145; SRB assay, 48 hours exposure) was 1.68E−06, the GI50 (DU-145; SRB assay, 48 hours exposure) was 0.63 µM and the CC50 (DU-145; read-out: LC50 DU-145, SRB assay, 48 hours exposure) was 27.8 µM. The “TGI SK-BR-3” value (SK-BR-3) was 1.34E−06, the GI50 (SK-BR-3) was 0.643 µM and the CC50 (SK-BR-3) was 2.79 µM. The “TGI PANC-1” value (PANC-1) was 7.80E−06, the GI50 (PANC-1) was 1.16 µM and the CC50 (PANC-1) was ≥ 32.6 µM. The “TGI H-MEC-1” value (HMEC1) was 3.21E−07, the GI50 (HMEC1) was 0.206 µM and the CC50 (HMEC1) was 1.26 µM. The “TGI LOVO” value (LoVo) was 2.02E−06, the GI50 (LoVo) was 0.629 µM and the CC50 (LoVo) was ≥ 32.6 µM. For the same compound, the “TGI K-562” value (K-562) was 3.26E−05, the GI50 (K-562) was 1.21 µM and the CC50 (K-562) was ≥ 32.6 µM. For the same compound, the GI50 (LNCaP; Homo sapiens, LNCaP, 48 h, read-out: GI50 LN-caP, SRB assay, 48 hours exposure) was 0.617 µM, the CC50 (LNCaP; Homo sapiens, LNCaP, 48 h, read-out: LC50 LN-caP, SRB assay, 48 hours exposure) was 2.96 µM and the “TGI LN-caP” value (LNCaP; SRB assay, 48 hours exposure) was 1.35E−06. The “TGI HT-29” value (HT-29) was 3.26E−06, the GI50 (HT-29) was 0.829 µM and the CC50 (HT-29) was 3.26 µM. The “TGI MEL-28” value (SK-MEL-28) was 9.24E−07, the GI50 (SK-MEL-28) was 0.398 µM and the CC50 (SK-MEL-28) was 2.16 µM. The “TGI LOVO-DOX” value (LoVo-Dox) was 2.79E−06, the GI50 (LoVo-Dox) was 0.702 µM and the CC50 (LoVo-Dox) was 15.1 µM. For the same compound, the “TGI IGROV-ET” value (IGROV-ET) was 1.61E−06, the GI50 (IGROV-ET) was 0.555 µM and the CC50 (IGROV-ET) was ≥ 32.6 µM. For the same compound, the GI50 (SK-OV-3; Homo sapiens, SK-OV-3, 48 h, read-out: GI50 SKOV-3, SRB assay, 48 hours exposure) was 1.3 µM, the “TGI SKOV-3” value (SK-OV-3; SRB assay, 48 hours exposure) was 3.26E−06 and the CC50 (SK-OV-3; SRB assay, 48 hours exposure) was 3.26 µM.
`Cc1ccc2c(-c3ccnc(N)n3)c3ccnc(N)n3c2n1` [Compound 24] was tested, and the “TGI IGROV” value (IGROV-1) was 6.38E−06, the GI50 (IGROV-1) was 0.995 µM and the CC50 (IGROV-1) was 23 µM. The “TGI A-549” value (A-549) was 6.87E−06, the GI50 (A-549) was 1.38 µM and the CC50 (A-549) was 17.5 µM. The CC50 (DU-145; Homo sapiens, DU-145, 48 h, read-out: LC50 DU-145, SRB assay, 48 hours exposure) was 15.6 µM, the “TGI DU-145” value (DU-145; SRB assay, 48 hours exposure) was 1.91E−06 and the GI50 (DU-145; SRB assay, 48 hours exposure) was 0.831 µM. For the same compound, the “TGI SK-BR-3” value (SK-BR-3) was 4.77E−06, the GI50 (SK-BR-3) was 1.04 µM and the CC50 (SK-BR-3) was 10.4 µM. The “TGI PANC-1” value (PANC-1) was 2.06E−05, the GI50 (PANC-1) was 3.88 µM and the CC50 (PANC-1) was ≥ 34.3 µM. The “TGI H-MEC-1” value (HMEC1) was 7.86E−07, the GI50 (HMEC1) was 0.247 µM and the CC50 (HMEC1) was 2.67 µM. For the same compound, the “TGI LOVO” value (LoVo) was 1.22E−06, the GI50 (LoVo) was 0.325 µM and the CC50 (LoVo) was > 34.3 µM. The “TGI K-562” value (K-562) was 7.35E−06, the GI50 (K-562) was 1.62 µM and the CC50 (K-562) was 22.2 µM. The “TGI LN-caP” value (LNCaP; SRB assay, 48 hours exposure) was 7.24E−07, the GI50 (LNCaP; read-out: GI50 LN-caP, SRB assay, 48 hours exposure) was 0.174 µM and the CC50 (LNCaP; read-out: LC50 LN-caP, SRB assay, 48 hours exposure) was ≥ 34.3 µM. For the same compound, the “TGI HT-29” value (HT-29) was 3.43E−05, the GI50 (HT-29) was 16.4 µM and the CC50 (HT-29) was ≥ 34.3 µM. For the same compound, the “TGI MEL-28” value (SK-MEL-28) was 3.43E−06, the GI50 (SK-MEL-28) was 0.721 µM and the CC50 (SK-MEL-28) was 12.6 µM. For the same compound, the “TGI LOVO-DOX” value (LoVo-Dox) was 3.43E−06, the GI50 (LoVo-Dox) was 0.642 µM and the CC50 (LoVo-Dox) was ≥ 34.3 µM. The “TGI IGROV-ET” value (IGROV-ET) was 7.11E−06, the GI50 (IGROV-ET) was 1.01 µM and the CC50 (IGROV-ET) was ≥ 34.3 µM. The “TGI SKOV-3” value (SK-OV-3; SRB assay, 48 hours exposure) was 1.00E−05, the GI50 (SK-OV-3; read-out: GI50 SKOV-3, SRB assay, 48 hours exposure) was 1.39 µM and the CC50 (SK-OV-3; SRB assay, 48 hours exposure) was ≥ 34.3 µM.
